Assays:
[1] = molecular target: T1, SACOL2570 (putative galactoside O-acetyltransferase) (Staphylococcus aureus, UniProt Q5HCZ5); assay: ITC, […] stoichiometry; type: binding
[2] = molecular target: T1, SACOL2570 (putative galactoside O-acetyltransferase); assay: crystal structure; type: binding
[3] = molecular target: the molecule itself; assay: crystal structure

## CC(=O)SCCNC(=O)CCNC(=O)[C@H](O)C(C)(C)COP(=O)(O)OP(=O)(O)OC[C@H]1O[C@@H](n2cnc3c(N)ncnc32)[C@H](O)[C@@H]1OP(=O)(O)O [AcCoA]
[1]
  Kd: 460 ± 35 µM

## CC(C)(COP(=O)(O)OP(=O)(O)OC[C@H]1O[C@@H](n2cnc3c(N)ncnc32)[C@H](O)[C@@H]1OP(=O)(O)O)[C@@H](O)C(=O)NCCC(=O)NCCS [CoA]
[2]
  Kd: 660 ± 13 µM

B1: putative galactoside O-acetyltransferase SACOL2570 from Staphylococcus aureus subsp. COL (enzyme)
chain: MTEKEKMLAEKWYDANFDQYLINERARAKDICFELNHTRPSATNKRKELIDQLFQTTTDNVSISIPFDTDYGWNVKLGKNVYVNTNCYFMDGGQITIGDNVFIGPNCGFYTATHPLNFHHRNEGFEKAGPIHIGSNTWFGGHVAVLPGVTIGEGSVIGAGSVVTKDIPPHSLAVGNPCKVVRKIDNDLPSETLNDETIK
modifications: selenomethionine (Se-Met-SACOL2570) in the protein of the apo crystals (PDB 3FTT) only
[3]
  stoichiometry N: 3

Source: publication PMC3923901 (Journal of structural and functional genomics, 2013)
